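How tested: cells in 96-well plates exposed to compound for 48 hours at five concentrations. GI50 marks 50% less growth. At the TGI there is no net growth.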
How the values were obtained:
Test in all cases: NCI anticancer screen, dose series, 48 h
IGROV1 ovarian = system: IGROV1 ovarian
SNB-19 CNS = system: SNB-19 CNS
UACC-62 melanoma = system: UACC-62 melanoma
MDA-MB-231 breast = system: MDA-MB-231 breast
UACC-257 melanoma = system: UACC-257 melanoma
HOP-92 NSCLC = system: HOP-92 NSCLC
NCI-H460 lung = system: NCI-H460 lung
786-0 renal = system: 786-0 renal
UO-31 renal = system: UO-31 renal
HOP-62 NSCLC = system: HOP-62 NSCLC
HS 578T breast = system: HS 578T breast
SR leukemia = system: SR leukemia
OVCAR-5 ovarian = system: OVCAR-5 ovarian
SNB-75 CNS = system: SNB-75 CNS
RPMI-8226 leukemia = system: RPMI-8226 leukemia
TK-10 renal = system: TK-10 renal
CAKI-1 renal = system: CAKI-1 renal
OVCAR-8 ovarian = system: OVCAR-8 ovarian
DU-145 prostate = system: DU-145 prostate
HL-60(TB) leukemia = system: HL-60(TB) leukemia
SW-620 colon = system: SW-620 colon
MDA-MB-435 = system: MDA-MB-435
LOX IMVI melanoma = system: LOX IMVI melanoma
K-562 leukemia = system: K-562 leukemia
HCT-15 colon = system: HCT-15 colon
U251 CNS = system: U251 CNS
CCRF-CEM leukemia = system: CCRF-CEM leukemia
KM12 colon = system: KM12 colon

Compound: COc1ccc(C(=S)c2cc(OC)c(OC)c(OC)c2)cc1OC(=O)CCl
- GI50 (IGROV1 ovarian): 49.9 nM
- TGI (IGROV1 ovarian): > 100000 nM
- GI50 (SNB-19 CNS): < 20.7 nM
- TGI (SNB-19 CNS): > 100000 nM
- GI50 (UACC-62 melanoma): 39.1 nM
- TGI (UACC-62 melanoma): > 100000 nM
- GI50 (MDA-MB-231 breast): 25.3 nM
- GI50 (UACC-257 melanoma): > 100000 nM
- TGI (UACC-257 melanoma): > 100000 nM
- GI50 (HOP-92 NSCLC): 550 nM
- TGI (HOP-92 NSCLC): > 100000 nM
- GI50 (NCI-H460 lung): 30.1 nM
- TGI (NCI-H460 lung): 12900 nM
- GI50 (786-0 renal): 183 nM
- TGI (786-0 renal): > 100000 nM
- GI50 (UO-31 renal): 144 nM
- TGI (UO-31 renal): > 95700 nM
- GI50 (HOP-62 NSCLC): 61.4 nM
- TGI (HOP-62 NSCLC): > 100000 nM
- GI50 (HS 578T breast): 23 nM
- TGI (HS 578T breast): > 100000 nM
- GI50 (SR leukemia): < 10 nM
- TGI (SR leukemia): > 100000 nM
- GI50 (OVCAR-5 ovarian): 3320 nM
- TGI (OVCAR-5 ovarian): > 100000 nM
- GI50 (SNB-75 CNS): < 11.4 nM
- TGI (SNB-75 CNS): > 100000 nM
- GI50 (RPMI-8226 leukemia): < 19.6 nM
- TGI (RPMI-8226 leukemia): 25200 nM
- GI50 (TK-10 renal): 32600 nM
- TGI (TK-10 renal): > 100000 nM
- GI50 (CAKI-1 renal): 44.9 nM
- TGI (CAKI-1 renal): 52100 nM
- GI50 (OVCAR-8 ovarian): 35.5 nM
- TGI (OVCAR-8 ovarian): > 100000 nM
- GI50 (DU-145 prostate): 31.1 nM
- TGI (DU-145 prostate): > 100000 nM
- GI50 (HL-60(TB) leukemia): < 12.9 nM
- TGI (HL-60(TB) leukemia): < 21.8 nM
- GI50 (SW-620 colon): < 14.6 nM
- TGI (SW-620 colon): > 100000 nM
- GI50 (MDA-MB-435): < 10 nM
- TGI (MDA-MB-435): < 10.8 nM
- GI50 (LOX IMVI melanoma): 10.2 nM
- TGI (LOX IMVI melanoma): > 100000 nM
- GI50 (K-562 leukemia): < 10 nM
- TGI (K-562 leukemia): > 100000 nM
- GI50 (HCT-15 colon): < 10 nM
- TGI (HCT-15 colon): > 100000 nM
- GI50 (U251 CNS): 34.1 nM
- TGI (U251 CNS): > 100000 nM
- GI50 (CCRF-CEM leukemia): < 16.7 nM
- TGI (CCRF-CEM leukemia): > 100000 nM
- GI50 (KM12 colon): < 10 nM
- TGI (KM12 colon): > 100000 nM

From PubChem BioAssay (NCI)
